Here are results for 4 compounds from PMC5054527, “Mechanism of high affinity inhibition of the human urate transporter URAT1” (Scientific Reports, 2016).

Where a chain is given by its changes, count along the chain named. Like-named read-outs stand apart in the source and are kept apart here.

What all share (experiment): URAT1 uric acid transport activity assay
Format in all cases: cell-based

Assay [1] addresses T1, r-M481I rURAT1 point mutant (Rattus norvegicus, UniProt Q3ZAV1, M481I).
T1 sequence (Q3ZAV1 1-553 M481I): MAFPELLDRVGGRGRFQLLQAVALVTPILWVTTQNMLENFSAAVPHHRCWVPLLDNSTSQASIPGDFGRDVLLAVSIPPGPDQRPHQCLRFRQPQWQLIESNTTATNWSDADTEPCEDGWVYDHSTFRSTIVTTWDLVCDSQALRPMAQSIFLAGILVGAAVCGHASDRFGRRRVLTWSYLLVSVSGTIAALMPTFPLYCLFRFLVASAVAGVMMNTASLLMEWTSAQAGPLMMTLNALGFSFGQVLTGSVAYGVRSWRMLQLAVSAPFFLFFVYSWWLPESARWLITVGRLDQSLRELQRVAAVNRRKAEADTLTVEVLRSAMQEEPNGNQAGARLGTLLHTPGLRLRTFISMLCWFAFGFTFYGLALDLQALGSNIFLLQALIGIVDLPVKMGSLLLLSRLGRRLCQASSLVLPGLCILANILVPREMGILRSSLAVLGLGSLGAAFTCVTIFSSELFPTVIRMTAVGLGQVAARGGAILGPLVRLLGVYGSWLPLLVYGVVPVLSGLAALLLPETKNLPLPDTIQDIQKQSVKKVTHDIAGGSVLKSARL
The method, boiled down:
(§1)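 Readout: 14C-uric acid uptake (100 μM, 10 min) in cells transiently transfected one day earlier with mutant rURAT1. Serially diluted inhibitors were added 5 min before substrate. Triplicate points, four-parameter logistic fit for IC50.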

Assay [2] concerns the target T2, r-T26V rURAT1 point mutant (Rattus norvegicus, UniProt Q3ZAV1, T26V).
T2 sequence (Q3ZAV1 1-553 T26V): T1 sequence (Q3ZAV1 1-553 M481I) with T26V, I481M
The method, boiled down: as §1

The target in a further assay is T3, rat URAT1 (rURAT1 WT) (Rattus norvegicus, UniProt Q3ZAV1).
T3 sequence (Q3ZAV1 1-553): T1 sequence (Q3ZAV1 1-553 M481I) with I481M

[3] abbreviates: rURAT1 WT, MES pH 5.5, 100 μM 14C-uric acid, read-out: IC50 (uric acid transport).

On to `CCc1oc2ccccc2c1C(=O)c1cc(Br)c(O)c(Br)c1` [benzbromarone], for which the values for the IC50 (in assay [1]; in assay [2]; against rat URAT1 (rURAT1 WT)) were 15 ± 1.1 µM, 26 ± 4.4 µM and 26 µM, respectively.

`O=C(O)CSc1nnc(Br)n1-c1ccc(C2CC2)c2ccccc12` [lesinurad, 2-((5-bromo-4-(4-cyclopropylnaphthalen-1-yl)-4H-1,2,4-triazol-3-yl)thio)acetic acid]: the IC50 – broadly, the concentration that inhibits the measured activity by half – in assay [1] (r-M481I, MES pH 5.5, 100 μM 14C-uric acid, read-out: IC50 (uric acid transport)) stood at 71 ± 3 µM; in assay [2] (r-T26V, MES pH 5.5, 100 μM 14C-uric acid, read-out: IC50 (uric acid transport)), 76 ± 2.3 µM; at rat URAT1 (rURAT1 WT) (setting [3]) it was 81 µM.

`O=C1C(CC[S+]([O-])c2ccccc2)C(=O)N(c2ccccc2)N1c1ccccc1` (centres unmarked) [sulfinpyrazone]: the “fold increased affinity of r-M481I compared to rURAT1” value in assay [1] (from IC50 values) is recorded as 1.7 fold. Moreover, the IC50 in assay [1] (r-M481I, HEPES pH 7.3, 100 μM 14C-uric acid, read-out: IC50 (uric acid transport)) came out at 395 ± 68 µM; in assay [2] (r-T26V, HEPES pH 7.3, 100 μM 14C-uric acid, read-out: IC50 (uric acid transport)), 655 ± 191 µM; on rat URAT1 (rURAT1 WT) (rURAT1 WT, HEPES pH 7.3, 100 μM 14C-uric acid, read-out: IC50 (uric acid transport)) it was 680 µM.

`O=c1[nH]c(=O)c2[nH]c(=O)[nH]c2[nH]1` [uric acid]: the IC50 on rat URAT1 (rURAT1 WT) (setting [3]) amounted to 2630 µM.
